Reference: patent US20170144969A1, “ANT[…], METHOD FOR PRODUCTION AND USES THEREOF” (priority 2014, published 2017)

What was measured:
S. aureus (MTCC 737) = assay: Minimum Inhibitory Concentration, micro-dilution broth; format: cell-based, Staphylococcus aureus; settings: 24 h, 37° C.
[1] = test system: Enterococcus faecium (ATCC 19634); assay: as above; format: cell-based; settings: 24 h, 37° C.; read-out: Minimum Inhibitory Concentration E. faceium
E. coli (MTCC 443) = assay: as above; format: cell-based; settings: 24 h, 37° C.
MRSA (ATCC 33591) = assay: as above; format: cell-based, methicillin-resistant S. aureus; settings: 24 h, 37° C.
[2] = test system: vancomycin resistant Enterococcus faecium (VRE) (ATCC 51559); assay: as above; format: cell-based; settings: 24 h, 37° C.
[3] = test system: Klebsiella pneumoniae (ATCC 700603); assay: as above; format: cell-based; settings: 24 h, 37° C.
human Red Blood Cells = assay: Haemolytic activity; settings: human RBCs, 1 h at 37° C.
S. aureus biofilms = assay: Bacterial biofilm disruption (pre-formed biofilm); format: cell-based; settings: 64×MIC, 24 h

Structure (SMILES)	MIC (S. aureus (MTCC 737))	MIC [1]	MIC (E. coli (MTCC 443))	Minimum Inhibitory Concentration MRSA (MRSA (ATCC 33591))	MIC [2]	Minimum Inhibitory Concentration K. pneumonie [3]	HC50 (human Red Blood Cells; Table 3)	HC50 (human Red Blood Cells; Table 6)	reduction of cell viability in pre-existing biofilms (S. aureus biofilms)
CCCCCCCCCCCCCC(=O)N(CCCNC(=O)[C@@H](N)CCCCN)CCCNC(=O)[C@@H](N)CCCCN.O=C(O)C(F)(F)F.O=C(O)C(F)(F)F [Compound 11, N,N-bis-[{3-(^LLys)amino}propyl]tetradecanamide bis(trifluoroacetate)]	7.8 µM	2 µM	5.9 µM	14 µM	1.5 µM	9.3 µM	588		
CCCCCCCCCCCC(=O)N(CCCNC(=O)CN)CCCNC(=O)CN.O=C(O)C(F)(F)F.O=C(O)C(F)(F)F [Compound 42, N,N-bis-[{3-(Gly)amido}propyl]dodecanamide bis(trifluoroacetate)]	67 µM	86 µM	340 µM	61 µM	112 µM	>340 µM		400 µM	
CCCCCCCCCCCCCC(=O)N(CCCNC(=O)CN)CCCNC(=O)CN.O=C(O)C(F)(F)F.O=C(O)C(F)(F)F [Compound 43, N,N-bis-[{3-(Gly)amido}propyl]tetradecanamide bis(trifluoroacetate)]	12.5 µM	8.8 µM	16 µM	10.8 µM	13 µM	>365 µM		157 µM	
CCCCCCCCCCCCCCCC(=O)N(CCCNC(=O)CN)CCCNC(=O)CN.O=C(O)C(F)(F)F.O=C(O)C(F)(F)F [Compound 44, N,N-bis-[{3-(Gly)amido}propyl]hexadecanamide bis(trifluoroacetate)]	6.5 µM	4 µM	5.9 µM	10 µM	3.3 µM	>365 µM		90 µM	
CCCCCCCCCCCC(=O)N(CCCNC(=O)[C@H](C)N)CCCNC(=O)[C@H](C)N.O=C(O)C(F)(F)F.O=C(O)C(F)(F)F [Compound 45, N,N-bis-[{3-(^LAla)amido}propyl]dodecanamide bis(trifluoroacetate)]	95 µM	73 µM	282 µM	133 µM	82 µM	>365 µM		562 µM	
CCCCCCCCCCCCCC(=O)N(CCCNC(=O)[C@H](C)N)CCCNC(=O)[C@H](C)N.O=C(O)C(F)(F)F.O=C(O)C(F)(F)F [Compound 46, N,N-bis-[{3-(^LAla)amido}propyl]tetradecanamide bis(trifluoroacetate)]	19 µM	9 µM	17 µM	17 µM	7.6 µM	>360 µM		93 µM	
CCCCCCCCCCCCCCCC(=O)N(CCCNC(=O)[C@H](C)N)CCCNC(=O)[C@H](C)N.O=C(O)C(F)(F)F.O=C(O)C(F)(F)F [Compound 47, N,N-bis-[{3-(^LAla)amido}propyl]hexadecanamide bis(trifluoroacetate)]	5.6 µM	3 µM	4 µM	6 µM	3 µM	12 µM		68 µM	
CCCCCCCCCCCC(=O)N(CCCNC(=O)[C@@H](N)C(C)C)CCCNC(=O)[C@@H](N)C(C)C.O=C(O)C(F)(F)F.O=C(O)C(F)(F)F [Compound 48, N,N-bis-[{3-(Val)amido}propyl]dodecanamide bis(trifluoroacetate)]	28 µM	25 µM	18 µM	40 µM	25 µM	58 µM		264 µM	
CCCCCCCCCCCCCC(=O)N(CCCNC(=O)[C@@H](N)C(C)C)CCCNC(=O)[C@@H](N)C(C)C.O=C(O)C(F)(F)F.O=C(O)C(F)(F)F [Compound 49, N,N-bis-[{3-(^LVal)amido}propyl]tetradecanamide bis(trifluoroacetate)]	4 µM	3.6 µM	7 µM	3.4 µM	4 µM	7.3 µM		134 µM	
CCCCCCCCCCCCCCCC(=O)N(CCCNC(=O)[C@@H](N)C(C)C)CCCNC(=O)[C@@H](N)C(C)C.O=C(O)C(F)(F)F.O=C(O)C(F)(F)F [Compound 50, N,N-bis-[{3-(^LVal)amido}propyl]hexadecanamide bis(trifluoroacetate)]	2.7 µM	1.7 µM	10 µM	1.9 µM	1.4 µM	>314 µM		86 µM	
CCCCCCCCCCCC(=O)N(CCCNC(=O)[C@@H](N)[C@@H](C)CC)CCCNC(=O)[C@@H](N)[C@@H](C)CC.O=C(O)C(F)(F)F.O=C(O)C(F)(F)F [Compound 51, N,N-bis-[{3-(^LIle)amido}propyl]dodecanamide bis(trifluoroacetate)]	8 µM	8 µM	11 µM	5.7 µM	11.3 µM	28 µM		95 µM	
CCCCCCCCCCCCCC(=O)N(CCCNC(=O)[C@@H](N)[C@@H](C)CC)CCCNC(=O)[C@@H](N)[C@@H](C)CC.O=C(O)C(F)(F)F.O=C(O)C(F)(F)F [Compound 52, N,N-bis-[{3-(^LIle)amido}propyl]tetradecanamide bis(trifluoroacetate)]	3 µM	4 µM	5 µM	2.9 µM	2.6 µM	300 µM		64 µM	
CCCCCCCCCCCC(=O)N(CCCNC(=O)[C@@H](N)CC(C)C)CCCNC(=O)[C@@H](N)CC(C)C.O=C(O)C(F)(F)F.O=C(O)C(F)(F)F [Compound 54, N,N-bis-[{3-(^LLeu)amido}propyl]dodecanamide bis(trifluoroacetate)]	5.8 µM	8.6 µM	8.8 µM	8.9 µM	5 µM	18 µM		305 µM	
CCCCCCCCCCCCCCCC(=O)N(CCCNC(=O)[C@@H](N)CC(C)C)CCCNC(=O)[C@@H](N)CC(C)C.O=C(O)C(F)(F)F.O=C(O)C(F)(F)F [Compound 56, N,N-bis-[{3-(^LLeu)amido}propyl]hexadecanamide bis(trifluoroacetate)]	3.8 µM	3.4 µM	20 µM	2.9 µM	3.4 µM	280 µM		95 µM	
CCCCCCCCCCCC(=O)N(CCCNC(=O)[C@@H]1CCCN1)CCCNC(=O)[C@@H]1CCCN1.O=C(O)C(F)(F)F.O=C(O)C(F)(F)F [Compound 57, N,N-bis-[{3-(^LPro)amido}propyl]dodecanamide bis(trifluoroacetate)]	60 µM	78 µM	90 µM	130 µM	112 µM	>340 µM		918 µM	
CCCCCCCCCCCCCC(=O)N(CCCNC(=O)[C@@H]1CCCN1)CCCNC(=O)[C@@H]1CCCN1.O=C(O)C(F)(F)F.O=C(O)C(F)(F)F [Compound 58, N,N-bis-[{3-(^LPro)amido}propyl]tetradecanamide bis(trifluoroacetate)]	11 µM	13 µM	12 µM	15 µM	18 µM	135 µM		216 µM	
CCCCCCCCCCCCCCCC(=O)N(CCCNC(=O)[C@@H]1CCCN1)CCCNC(=O)[C@@H]1CCCN1.O=C(O)C(F)(F)F.O=C(O)C(F)(F)F [Compound 59, N,N-bis-[{3-(^LPro)amido}propyl]hexadecanamide bis(trifluoroacetate)]	2.8 µM	4 µM	4.4 µM	7.2 µM	2.7 µM	12 µM		76 µM	
CC[C@H]1OC(=O)[C@H](C)[C@@H](O[C@H]2C[C@@](C)(OC)[C@@H](O)[C@H](C)O2)[C@H](C)[C@@H](O[C@@H]2O[C@H](C)C[C@H](N(C)C)[C@H]2O)[C@](C)(O)C[C@@H](C)C(=O)[C@H](C)[C@@H](O)[C@]1(C)O [erythromycin, reference compound]									none of the antibiotics showed significant reduction
CC(=O)NC[C@H]1CN(c2ccc(N3CCOCC3)c(F)c2)C(=O)O1 [linezolid, reference compound]									none of the antibiotics showed significant reduction
CN[C@H](CC(C)C)C(=O)N[C@H]1C(=O)N[C@@H](CC(N)=O)C(=O)N[C@H]2C(=O)N[C@H]3C(=O)N[C@H](C(=O)N[C@H](C(=O)O)c4cc(O)cc(O)c4-c4cc3ccc4O)[C@H](O)c3ccc(c(Cl)c3)Oc3cc2cc(c3O[C@@H]2O[C@H](CO)[C@@H](O)[C@H](O)[C@H]2O[C@H]2C[C@](C)(N)[C@H](O)[C@H](C)O2)Oc2ccc(cc2Cl)[C@H]1O [vancomycin, reference compound]									none of the antibiotics showed significant reduction
